Assays:
[1] = target: T1, P-gp (MDR1) (Homo sapiens, UniProt P08183); assay: MDCK-MDR1 permeability and efflux; assay type: in vitro ADME; parameters: Papp at 2 h / efflux ratio at 2 h: dose or concentration left out as unconfirmed; conditions: dog; for efflux ratio at 2 h: MDCK-MDR1 efflux ratio, read-out: P-gp ER
T1 construct: host or cells: MDR1-MDCK cell monolayers
Method: (§1) min, with an isocratic hold for 0.5 min, before transitioning to 10% B over 0.05 min. The column was re-equilibrated (1 min) before the next sample injection. The total run time was 2.55 min, and the HPLC flow rate was 0.5 ml/min. The source temperature was set at 500 °C, and mass spectral analyses were performed using a Turbo-Ion spray source in positive ionization mode (5.0-kV spray voltage) and using multiple-reaction monitoring of transitions specific for the analytes. All data were analyzed using AB Sciex Analyst 1.5.1 software. […]
(§2) In-vitro determination of blood-brain barrier penetration potential
(§3) Blood-brain barrier penetration was determined using MDR1-MDCK cell monolayers by Absorption Systems, following their protocol. In short, compounds were incubated at […] final concentration on one side of the cell monolayer for 2 hours. Compounds concentration on either side of the monolayer was determined by LC-MS/MS and apparent permeability and efflux ratio

[2] = target: T2, MDCK-MDR1 (P-gp) (Homo sapiens, UniProt P08183); assay: MDCK-MDR1 permeability and efflux; assay type: in vitro ADME; parameters: Papp at 2 h / efflux ratio at 2 h: dose or concentration left out as unconfirmed; conditions: MDCK-MDR1
T2 construct: host or cells: MDR1-MDCK cell monolayers
Method: as §1, §2, §3

[3] = predicted hepatic clearance (dog); assay type: in vitro ADME; conditions: dog (d)
Method: (§4) After a 5 min preincubation, the reaction was initiated by the addition of NADPH (1 mM). At selected time intervals (0, 3, 7, 15, 25, and 45 min), aliquots were taken and subsequently placed into a 96-well plate containing cold acetonitrile with internal standard (50 ng/mL carbamazepine). Plates were then centrifuged at 3000 rcf (4 °C) for 10 min, and the supernatant was transferred to a separate 96-well plate and diluted 1:1 with water for LC/MS/MS analysis. The in vitro half-life ( 1/2, min, Eq. 1), intrinsic clearance (CLint, mL/min/kg, Eq. 2), and subsequent predicted hepatic clearance (CLhep, mL/min/kg, Eq. 3) was determined employing the […]
(§5) where k represents the slope from linear regression analysis of the natural log percent remaining of a test compound as a function of incubation time […]
(§6) (2) CLint = in vitroT x mg microsomes x gram liver x kg body wt ascale-up factors: of 20 (human) or 45 (rat) […]
(§7) where Qh (hepatic blood flow, mL/min/kg) is 21 (human) or 70 (rat).
(§8) LC/MS/MS Bioanalysis of Samples from Plasma Protein Binding and Intrinsic Clearance […]
(§9) Samples were analyzed on a Thermo Electron TSQ Quantum Ultra triple quad mass spectrometer (San Jose, CA) via electrospray ionization (ESI) with two Themo Electron Accella pumps (San Jose, CA), and a Leap Technologies CTC PAL autosampler (Carrboro, NC). […]

[4] = predicted hepatic clearance, hepatic microsomes (rat); assay type: in vitro ADME; conditions: rat (r)
Method: as §4, §5, §6, §7, §8, §9

[5] = system: rM2-5; assay: muscarinic selectivity calcium mobilization (rat M2-5); assay type: cell-based

T1 sequence (P08183 whole entry): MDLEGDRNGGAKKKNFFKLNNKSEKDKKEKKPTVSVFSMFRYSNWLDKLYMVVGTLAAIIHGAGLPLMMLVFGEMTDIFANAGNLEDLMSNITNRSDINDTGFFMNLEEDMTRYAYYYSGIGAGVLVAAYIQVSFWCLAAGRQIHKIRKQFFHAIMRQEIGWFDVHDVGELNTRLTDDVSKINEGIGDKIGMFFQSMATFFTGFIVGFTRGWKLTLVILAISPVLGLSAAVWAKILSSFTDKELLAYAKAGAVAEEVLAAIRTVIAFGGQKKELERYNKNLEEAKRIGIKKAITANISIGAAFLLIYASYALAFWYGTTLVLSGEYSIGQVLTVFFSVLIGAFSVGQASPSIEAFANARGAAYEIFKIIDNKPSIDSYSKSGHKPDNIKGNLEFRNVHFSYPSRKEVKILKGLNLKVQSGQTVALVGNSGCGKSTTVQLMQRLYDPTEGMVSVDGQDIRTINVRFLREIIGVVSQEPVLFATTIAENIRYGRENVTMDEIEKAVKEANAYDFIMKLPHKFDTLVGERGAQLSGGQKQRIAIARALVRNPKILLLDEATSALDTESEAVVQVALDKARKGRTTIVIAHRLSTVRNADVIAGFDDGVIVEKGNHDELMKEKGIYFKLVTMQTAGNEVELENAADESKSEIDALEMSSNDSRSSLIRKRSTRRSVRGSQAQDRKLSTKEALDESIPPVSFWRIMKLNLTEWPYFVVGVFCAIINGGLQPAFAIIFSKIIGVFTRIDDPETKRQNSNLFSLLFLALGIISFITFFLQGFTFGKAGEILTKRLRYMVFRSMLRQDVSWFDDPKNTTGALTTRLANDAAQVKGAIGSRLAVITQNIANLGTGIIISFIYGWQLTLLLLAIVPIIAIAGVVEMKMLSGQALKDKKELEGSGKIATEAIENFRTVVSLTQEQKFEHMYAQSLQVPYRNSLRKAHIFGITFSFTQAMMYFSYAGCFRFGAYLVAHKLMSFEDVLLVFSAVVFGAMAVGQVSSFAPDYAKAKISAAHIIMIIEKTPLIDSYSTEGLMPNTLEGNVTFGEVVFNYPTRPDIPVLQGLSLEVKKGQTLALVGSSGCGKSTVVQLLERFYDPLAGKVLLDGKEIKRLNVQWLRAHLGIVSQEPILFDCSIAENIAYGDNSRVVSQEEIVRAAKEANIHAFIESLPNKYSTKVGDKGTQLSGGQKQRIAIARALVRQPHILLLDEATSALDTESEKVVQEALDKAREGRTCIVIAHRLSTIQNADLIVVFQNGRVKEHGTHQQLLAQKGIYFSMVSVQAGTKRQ
T2 sequence (P08183 whole entry): as above

| Structure (SMILES) | efflux ratio at 2 h [1] | Papp [2] | Predicted CLhep [3] | Predicted CLhep [4] | EC50 [5] | Papp at 2 h ([1]; MDCK-MDR1, MDCK-MDR1) |
| --- | --- | --- | --- | --- | --- | --- |
| Cn1cc2c(-c3cc(F)c(CN4Cc5ncccc5C4=O)c(F)c3)cccc2n1 [compound 1, reference compound] | 1.6 | 31 ×10⁻⁶ cm/s | 5.5 mL/min/kg | 5.7 mL/min/kg | > 30 µM |  |
| Cn1cc2c(-c3cc(F)c(CN4Cc5ncccc5C4=O)c(F)c3)ccc(C(C)(C)O)c2n1 [compound 7] | 1.97 | 23.1 ×10⁻⁶ cm/s | 8.0 mL/min/kg | 35.5 mL/min/kg | > 30 µM | 23 ×10⁻⁶ cm/s |
